Results reported in patent US5705491A, “Adenosine deaminase inhibitor” (Nippon Zoki Pharmaceutical Co., Ltd., priority 1992, dated 1998).

Experiments:
[1] = system: ischemic edema of hind paw of mice; assay: Suppressive action against ischemic edema; assay type: in vivo, ICR-strain male mice
Protocol: 4. Suppressive Action against Ischemic Edema
The right hind paw of ICR-strain male mice (11 weeks of age) were fastened with a rubber band to stop the blood stream for 20 minutes, and then the rubber band was removed to recover the blood stream. The tested drug was administered intravenously before the treatment. Each of the right and left hind paws were weighed and the suppressive action was measured according to the weight difference between the treated and untreated paws.

[2] = target: T1, adenosine deaminase of type VII (mucous membrane of intestinal tract of calf) (Bos taurus, UniProt P56658); assay: Adenosine deaminase inhibiting action; assay type: biochemical; settings: 25° C., 0.05M phosphate buffer pH 7.5, adenosine substrate, 5 minutes, Lineweaver-Burk plots
T1 construct: from tissue; host or cells: mucous membrane of intestinal tract of calf
T1 sequence (P56658 1-363): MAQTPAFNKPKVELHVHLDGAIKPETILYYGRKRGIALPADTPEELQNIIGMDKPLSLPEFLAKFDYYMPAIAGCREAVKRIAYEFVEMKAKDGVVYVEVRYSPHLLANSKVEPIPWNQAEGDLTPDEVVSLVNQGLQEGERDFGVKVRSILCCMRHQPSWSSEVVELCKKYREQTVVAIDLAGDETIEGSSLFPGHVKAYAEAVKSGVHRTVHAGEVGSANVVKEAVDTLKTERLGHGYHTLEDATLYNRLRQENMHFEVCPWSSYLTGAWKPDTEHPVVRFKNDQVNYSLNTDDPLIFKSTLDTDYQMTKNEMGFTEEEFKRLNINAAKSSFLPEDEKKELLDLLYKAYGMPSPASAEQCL
Protocol: 1. Adenosine Deaminase Inhibiting Action
The enzymatic reaction was conducted at 25° C. in a 0.05M phosphate buffer (pH=7.5). Thus, a reaction solution comprising 800 μl of substrate solution (adenosine), 100 μl of a solution to be tested and 100 μl of enzyme solution (adenosine deaminase of type VII; mucous membrane of intestinal tract of calf) was reacted for 5 minutes and the reaction was stopped by adding 100 μl of acetic acid. Then the amount of inosine produced was determined by means of an HPLC to measure the inhibiting activity. The test was conducted for various substrate concentrations and Ki values were measured by Lineweaver-Burk plots.

[3] = system: rats administered with puromycin aminonucleoside (nephritis model); assay: Therapeutic action to nephritis (puromycin aminonucleoside rats); assay type: in vivo, male rat (SD strain); settings: 50 mg/kg oral, five consecutive days
Protocol: 2. Therapeutic Action to Nephritis.
When puromycin aminonucleoside is administered to rats, symptoms similar to protein-rich urine, hypoproteinemia, hyperlipemia, nephrotic syndrome, etc, result and, therefore, rats which are administered with puromycin aminonucleoside have been used as pathological model animals for nephritis. The chemical name for puromycin aminonucleoside is 3'-amino-3'-deoxy-N,N-dimethyladenosine. A method by Endo, et al. [Sogo Rinsho, vol. 38, no. 5, page 821 (1989)] was somewhat modified and used as a test method here. Thus, a solution of puromycin aminonucleoside was dissolved in a physiological saline liquid and administered just once to a tail vein of a male rat (SD strain) of about 200 g body weight at a dose of 100 mg/kg (the initial of zero-th day).
The compound to be tested was dissolved in a physiological saline liquid and was given orally for five consecutive days from the zero-th day at a dose of 50 mg/kg each. After 24 hours, the accumulated urine was collected and the amount of urine and the amount of protein in the urine was measured. Blood was collected on the tenth day and the total protein in serum, creatinine in serum and urea nitrogen were measured.
Examples of the results are given in Tables 2 and where the control is those animals injected only with the puromycin aminonucleoside: […]

[4] = system: Human peripheral polymorphonuclear leukocyte (PML); assay: Inhibitory action against activated oxygen (superoxide) generation; assay type: cell-based; settings: FMLP 10^-7 M; for inhibition at 100 µM: 1 × 10^-4 M; for inhibition at 10 µM: 1 × 10^-5 M; for inhibition at 1 µM: 1 × 10^-6 M
Protocol: 3. Inhibitory Action against Activated Oxygen Generation
Human peripheral polymorphonuclear leukocyte (PML, 2×10^6 cells) prepared in a conventional method, bovine heart cytochrome C type-III (75 nmol), cytocharasin (5 μg) and tested drug were mixed with HEPES-buffered saline solution (final 1 ml) and incubated for 5 minutes at 37° C. N-Formyl-methionyl-leucyl-phenylalanine (FMLP) was added (final 10^-7 M) and incubated for 5 minutes. Immediately after the incubation, the reaction mixture was centrifuged at 4° C., and then the absorbance at 550 nm of the supernatant was measured with a spectrophotometer.
An excess amount of bovine liver superoxide dismutase (SOD) was added to the reaction mixture and the absorbance of the supernatant was also measured in the same manner as above as a blank value.
A portion of adenosine deaminase (ADA) may be removed during the preparation of human peripheral PML. Therefore, the inhibitory action against the generation of superoxide of the tested drug was measured in the same manner as mentioned above, adding 0.02 units of bovine liver ADA with human peripheral PML.
The inhibition against superoxide generation was calculated by the following equation, and examples of the results are given in Table 4. [formula]

[5] = with ADA (0.02 units bovine liver)

## CNc1nc(C)nc2c1ncn2[C@@H]1O[C@H](CO)[C@@H](O)[C@H]1OC [Compound 27, 2, N^6,2'-O-Trimethyladenosine]
[1]; 10 mg/kg intravenous before ischemia, treated paw
  Paw Weight, Treated: 254.4 ± 6.6 mg
[1]; 10 mg/kg intravenous, from weight difference between treated and untreated paws
  Inhibition (of ischemic edema): 67.7%
[2]
  Ki: 859 nM
[3]; blood on tenth day
  Serum Creatinine: 0.71 mg/dL
  Total Protein in Serum: 7.44 g/dL
  Urea Nitrogen: 31.9 mg/dL
[3]; 1st day
  Amount of Protein in Urine: 0 mg/day
[3]; 2nd day
  Amount of Protein in Urine: 29.2 mg/day
[3]; 3rd day
  Amount of Protein in Urine: 33.8 mg/day
[3]; 4th day
  Amount of Protein in Urine: 122.5 mg/day
[3]; 5th day
  Amount of Protein in Urine: 399.8 mg/day
[3]; 6th day
  Amount of Protein in Urine: 443.7 mg/day
[3]; 7th day
  Amount of Protein in Urine: 558.7 mg/day
[3]; 8th day
  Amount of Protein in Urine: 595.6 mg/day
[3]; 9th day
  Amount of Protein in Urine: 593.5 mg/day
[3]; 10th day
  Amount of Protein in Urine: 528.6 mg/day
[4]; [5]
  inhibition at 100 µM: 88%
  inhibition at 10 µM: 77%
  inhibition at 1 µM: 34%
[4]; with ADA (0.02 units bovine liver), 1 × 10^-7 M
  inhibition at 0.1 µM: 10%
[4]; without ADA, 1 × 10^-3 M
  inhibition at 1000 µM: 100%
[4]; without ADA
  inhibition at 100 µM: 79%
  inhibition at 10 µM: 22%
  inhibition at 1 µM: 2%
